Laboratory results taken from US7420037B2, “Heat shock protein-based vaccines and immunotherapies” (Antigenics Inc., priority 2003, dated 2008).
Values joined by “and” are separate entries in the source; they are usually repeats but may differ in a detail not shown here. Equal entries are not always repeated. Where two headings read alike, the source gives them in different places. No end group written: not given here.

How the values were obtained:
[1] = target: recombinant human or murine heat shock protein 70 (hsp70); type: binding
[2] = system: SIINFEKL-pulsed target cells; assay: 51Cr-release CTL assay after immunization of mice; type: in vivo; settings: for CTL assay: % killing at 200:1 E/T: SIINFEKL-pulsed target cells
Description: Mice were immunized s.c. at the base of the tail with the complexes listed above—[…] (SEQ ID NO:359) alone was added at a five-fold molar excess of the […] (SEQ ID NO:358) dose. 7 d later, spleens were harvested and stimulated in vitro with […] (SEQ ID NO:357) peptide. Values within bars represent the amount of epitope delivered. 100:1 E:T ratio shown.
In the same experiment, a ^51Cr-release assay as described above was done using […]-pulsed target cells. At an effector to target cell ratio of 200:1, the percent killing results obtained are shown in the far right column of the following table.

[3] = system: CD8+ T cells; parameters: species or system mice; settings: mouse, in vivo
[4] = system: γ-interferon-secreting CD8+ cells; assay: γ-interferon-secreting CD8+ cells after immunization of mice and in vitro restimulation with […]; type: in vivo; settings: mice immunized day 0, splenocytes day 7, restimulated 5 days; FIG. 1
Description: Non-covalent complexes of recombinant human heat shock protein 70 and hybrid antigens of the invention were evaluated for biological activity in vivo. To evaluate the induction of an antigen-specific immune response, mice were immunized on day 0 with one of the following: (1) 100 μg human hsp70; (2) a noncovalent complex of 100 μg hsp70 and 15 μg […] (SEQ ID NO:357) (OVA peptide); (3) a noncovalent complex of 100 μg hsp70 and 15 μg […] (SEQ ID NO:368) (N-terminal OVA peptide, C-terminal heat shock protein binding domain […] (SEQ ID NO:358), GSG linker in between); and (4) a noncovalent complex of […] and 15 μg […] (SEQ ID NO:367) (N-terminal OVA peptide, C-terminal heat shock protein binding domain […] (SEQ ID NO:359), GSG linker in between).
On day 7, splenocytes were obtained from the immunized animals and were restimulated with peptide ([…]) (SEQ ID NO:357) in vitro for 5 days, after which the percent of γ-interferon-secreting CD8+ cells was determined.

[5] = read-out: Epitope alone: Affinity for hsp70
[6] = read-out: Hybrid antigen comprising epitope: Affinity for hsp70
[7] = pH 8, read-out: Kd, peptide (epitope), heat shock protein-binding domain: None
[8] = read-out: Kd, heat shock protein-binding domain: HWDFAWPW, pH 8, read-out: Kd, heat shock protein-binding domain: […]
[9] = read-out: Kd, heat shock protein-binding domain: FYQLALTW, pH 8, read-out: Kd, heat shock protein-binding domain: […]
[10] = read-out: Kd, heat shock protein-binding domain: NLLRLTGW, pH 8, read-out: Kd, heat shock protein-binding domain: […]
[11] = read-out: Kd, heat shock protein-binding domain: RKLFFNLRW, pH 8, read-out: Kd, heat shock protein-binding domain: […]

## AFHHVAREL [reference compound]
[1]; [5]
  Kd: 84 µM

## AFHHVARELGSGNLLRLTGW
[1]; [6]
  Kd: 2.1 µM

## AIIRILQQL [reference compound]
[1]; [5]
  Kd: 93 µM

## AIIRILQQLGSGNLLRLTGW
[1]; [6]
  Kd: 0.6 µM

## ALFDIESKV [PSMA P2, reference compound]
[1]; [7]
  Kd: 145 µM

## ALFDIESKVgsgHWDFAWPW (ALFDIESKVGSGHWDFAWPW; not fully specified; printed as ALFDIESKVgsgHWDFAWPW) [PSMA P2 + HWDFAWPW]
[1]; [8]
  Kd: 22 µM

## ALKHRAYEL [reference compound]
[1]; [5]
  Kd: 97 µM

## ALKHRAYELGSGNLLRLTGW
[1]; [6]
  Kd: 1.1 µM

## FYQLALTW
[1]; [9]
  Kd: 5.9 µM

## GLYDGMEHL [reference compound]
[1]; [5]
  Kd: 48 µM

## GLYDGMEHLGSGNLLRLTGW
[1]; [6]
  Kd: 1.1 µM

## HWDFAWPW
[1]; [8]
  Kd: 120 µM

## HWDFAWPWgsgSIINFEKL (HWDFAWPWGSGSIINFEKL; not fully specified; printed as HWDFAWPWgsgSIINFEKL)
[1]; [8]
  Kd: 4.3 µM

## HWDFAWPWgsgYMDGTMSQV (HWDFAWPWGSGYMDGTMSQV; not fully specified; printed as HWDFAWPWgsgYMDGTMSQV)
[1]; [8]
  Kd: 29 µM

## Hsp70: recombinant human heat shock protein 70
[2]; Example 14
  CTL assay: % killing at 200:1 E/T: 0%
[2]; Example 16
  CTL assay: % killing at 200:1 E/T: 8.45%
[3]
  Number of Spots, Con A Positive control: 965
  Number of Spots, Con A positive control: 834
  Number of Spots, Medium control: 1.50 and 1.00
  Number of Spots, SIINFEKL: 0.33
  Number of spots, Con A positive control: 552 spots per 300,000 CD8 T cells
  Number of spots, Medium control: 0.00 spots per 300,000 CD8 T cells
  Number of spots, SIINFEKL: 0.67 spots per 300,000 CD8 T cells
  Number of spots, Unpulsed control: 0.50 spots per 300,000 CD8 T cells
  Number of spots, VSV control: 1.00 spots per 300,000 CD8 T cells
[3]; sc
  Number of Spots, SIINFEKL: 0.00
[4]
  immune response: percent of γ-interferon-secreting CD8+ cells: low level of response

## ILKEPVHGV [reference compound]
[1]; [5]
  Kd: 83 µM

## ILKEPVHGVGSGNLLRLTGW
[1]; [6]
  Kd: 1.2 µM

## IMDQVPFSV [Gp100 (“IMD”), reference compound]
[1]; [7]
  Kd: 2560 µM
[1]; [5]
  Kd: 2570 µM

## IMDQVPFSVgsgHWDFAWPW (IMDQVPFSVGSGHWDFAWPW; not fully specified; printed as IMDQVPFSVgsgHWDFAWPW)
[1]; [8]
  Kd: 155 µM

## IMDQVPFSVgsgNLLRLTGW (IMDQVPFSVGSGNLLRLTGW; not fully specified; printed as IMDQVPFSVgsgNLLRLTGW)
[1]; [6]
  Kd: 0.9 µM
[1]; [10]
  Kd: 3.1 µM

## KASEKIFYV [reference compound]
[1]; [5]
  Kd: 57 µM

## KASEKIFYVGSGNLLRLTGW
[1]; [6]
  Kd: 1.4 µM

## NLLRLTGW
[2]; binding domain peptide alone added at five-fold molar excess
  effect on induction of an immune response by HSP70: SIINFEKLGSGHWDFAWPW mixture: prevent induction of an immune response
[1]; [10]
  Kd: 1.85 µM

## NLLRLTGWGSGRGYVYQGL
[1]; [6]
  Kd: 1.4 µM

## NLLRLTGWGSGSHNFEKL
[1]; [6]
  Kd: 1.6 µM

## PSMA P2 + NLLRLTGW
[1]; [10]
  Kd: 1.3 µM

## RKLFFNLRW
[1]; [11]
  Kd: 15 µM

## SIINFEKL [OVA, reference compound]
[1]; [7]
  Kd: 279 µM

## SIINFEKLgsgFYQLALTW (SIINFEKLGSGFYQLALTW; not fully specified; printed as SIINFEKLgsgFYQLALTW) [OVA + FYQLALTW]
[1]; [9]
  Kd: 1.43 µM

## SIINFEKLgsgHWDFAWPW (SIINFEKLGSGHWDFAWPW; not fully specified; printed as SIINFEKLgsgHWDFAWPW) [OVA + HWDFAWPW]
[1]; [8]
  Kd: 40 µM

## SIINFEKLgsgNLLRLTGW (SIINFEKLGSGNLLRLTGW; not fully specified; printed as SIINFEKLgsgNLLRLTGW) [OVA + NLLRLTGW]
[1]
  increase in affinity for HSP70 (lower dissociation constant) over SIINFEKLGSGHWDFAWPW: 15 fold
[1]; [10]
  Kd: 1.2 µM

## SIINFEKLgsgRKLFFNLRW (SIINFEKLGSGRKLFFNLRW; not fully specified; printed as SIINFEKLgsgRKLFFNLRW) [OVA + RKLFFNLRW]
[1]; [11]
  Kd: 7 µM

## SLFNTVATL [reference compound]
[1]; [5]
  Kd: 35 µM

## SLFNTVATLGSGNLLRLTGW
[1]; [6]
  Kd: 1.9 µM

## SLLMWITQVGSGNLLRLTGW
[1]; [6]
  Kd: 2.2 µM

## SLYNTVATLGSGNLLRLTGW
[1]; [6]
  Kd: 1.8 µM

## SVYDFFVWL [reference compound]
[1]; [5]
  Kd: 81 µM

## SVYDFFVWLGSGNLLRLTGW
[1]; [6]
  Kd: 2.9 µM

## TLGIVCPI [HPV16 E7 (86-93), reference compound]
[1]; [7]
  Kd: 187 µM

## TLGIVCPIgsgHWDFAWPW (TLGIVCPIGSGHWDFAWPW) [HPV16 E7 (86-93) + HWDFAWPW]
[1]; [8]
  Kd: 9.1 µM

## TLGIVCPIgsgNLLRLTGW [HPV16 E7 (86-93) + NLLRLTGW]
[1]; [10]
  Kd: 5.2 µM

## VIYQYMDDL [reference compound]
[1]; [5]
  Kd: 91 µM

## VIYQYMDDLGSGNLLRLTGW
[1]; [6]
  Kd: 1.7 µM

## VLDVGDAYFSV [reference compound]
[1]; [5]
  Kd: 110 µM

## VLDVGDAYFSVGSGNLLRLTGW
[1]; [6]
  Kd: 2 µM

## YLEPGPVTV [reference compound]
[1]; [5]
  Kd: 71 µM

## YLEPGPVTVGSGNLLRLTGW
[1]; [6]
  Kd: 2 µM

## YMDGTMSQV [Tyrosinase (“YMD”), reference compound]
[1]; [7]
  Kd: 204 µM
[1]; [5]
  Kd: 209 µM

## YMDGTMSQVgsgHWDFAWPW (YMDGTMSQVGSGHWDFAWPW)
[1]; [8]
  Kd: 24 µM

## YMDGTMSQVgsgNLLRLTGW
[1]; [6]
  Kd: 1.8 µM
[1]; [10]
  Kd: 2.65 µM

## YMLDLQPETT [HPV16 E7 (11-20), reference compound]
[1]; [7]
  Kd: 91 µM

## YMLDLQPETTgsgHWDFAWPW (YMLDLQPETTGSGHWDFAWPW) [HPV16 E7 (11-20) + HWDFAWPW]
[1]; [8]
  Kd: 27 µM
